Where a name gives a salt, the structure may show the parent alone.
Biological target: T1, G9a (Homo sapiens, UniProt Q96KQ7)
T1 sequence (Q96KQ7 1-1210): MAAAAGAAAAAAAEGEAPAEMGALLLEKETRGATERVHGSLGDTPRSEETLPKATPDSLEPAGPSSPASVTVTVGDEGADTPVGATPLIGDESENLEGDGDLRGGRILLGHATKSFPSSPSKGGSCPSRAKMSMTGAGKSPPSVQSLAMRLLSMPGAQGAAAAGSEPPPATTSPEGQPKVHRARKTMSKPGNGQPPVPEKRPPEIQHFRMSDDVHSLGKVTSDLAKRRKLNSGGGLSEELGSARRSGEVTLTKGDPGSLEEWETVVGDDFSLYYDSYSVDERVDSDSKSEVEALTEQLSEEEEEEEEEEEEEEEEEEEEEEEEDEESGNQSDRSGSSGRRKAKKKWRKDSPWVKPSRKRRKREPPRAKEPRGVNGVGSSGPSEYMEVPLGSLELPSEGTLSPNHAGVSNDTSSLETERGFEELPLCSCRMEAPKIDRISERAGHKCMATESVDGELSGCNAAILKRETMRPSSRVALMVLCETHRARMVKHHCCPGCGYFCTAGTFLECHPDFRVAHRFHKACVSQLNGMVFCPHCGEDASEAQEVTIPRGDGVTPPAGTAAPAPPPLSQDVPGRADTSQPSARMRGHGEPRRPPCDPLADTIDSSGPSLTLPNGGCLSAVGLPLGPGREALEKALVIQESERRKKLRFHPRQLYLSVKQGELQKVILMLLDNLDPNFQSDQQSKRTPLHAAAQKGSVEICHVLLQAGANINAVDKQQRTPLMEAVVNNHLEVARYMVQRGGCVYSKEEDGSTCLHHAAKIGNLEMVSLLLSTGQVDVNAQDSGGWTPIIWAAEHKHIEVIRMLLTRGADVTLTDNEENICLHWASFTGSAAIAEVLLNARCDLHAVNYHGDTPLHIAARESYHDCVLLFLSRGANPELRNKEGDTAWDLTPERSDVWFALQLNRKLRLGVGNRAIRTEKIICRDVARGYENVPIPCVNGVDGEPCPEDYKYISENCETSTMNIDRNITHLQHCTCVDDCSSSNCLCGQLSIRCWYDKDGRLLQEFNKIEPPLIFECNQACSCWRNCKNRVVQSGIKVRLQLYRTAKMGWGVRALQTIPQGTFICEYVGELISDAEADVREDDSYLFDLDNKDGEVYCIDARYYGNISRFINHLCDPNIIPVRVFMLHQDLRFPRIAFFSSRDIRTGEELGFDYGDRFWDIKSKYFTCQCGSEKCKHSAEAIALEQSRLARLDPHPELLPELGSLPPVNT
Assay: G9a AlphaLISA enzymatic activity assay
Format: biochemical
Conditions: 0.15 nM G9a, 15 uM S-adenosyl-methionine, 100 nM biotinylated histone 3 peptide (1-21), 1 hour room temperature
From the text: The G9a AlphaLISA assay was used to detect the methyl modifications of a biotinylated histone H3 peptide by the compounds. These modifications are done by the histone methyl transferase activity of the G9a enzyme. The assay consists of reading a chemiluminescent signal at 615 nm; this signal is generated by a laser excitation at 680 nm that transfers a reactive singlet oxygen between the donor beads and acceptor beads. Donor beads are streptavidin conjugated and bind to the biotin on the peptide. Acceptor beads are conjugated with an antibody that recognizes the specific G9a methyl mark on the peptide. If there is a methyl mark on the peptide, the acceptor beads will bind to the peptide. Upon binding, the acceptor beads will be in close proximity (<200 nm) of the donor beads and when the donor beads are excited, the transfer of the oxygen can occur and a strong signal will be generated. If there is no methyl mark, the interaction between beads will not occur and signal will be at background levels.
For the assay, the following buffer was used to set up reactions: 50 mM Tris-HCl pH9, 50 mM NaCl, 0.01% Tween-20 and 1 mM DTT (added fresh prior to starting the reactions). The assay is set up by adding a final concentration of 0.15 nM G9a, 15 uM S-adenosyl-methionine and, 100 nM biotinylated histone 3 peptide (1-21). The reaction is incubated at room temperature for 1 hour, and subsequently quenched by the addition of the acceptor beads (anti-H3k9me2 AlphaLISA acceptor beads, PerkinElmer #AL117) at a final concentration of 20 ug/mL. The acceptor beads are incubated for 1 hour. After 1 hour, the donor beads are added at a final concentration of 20 ug/mL (Alpha Streptavidin donor beads, PerkinElmer #6760002). Donor beads are incubated for 0.5 hours. Both donor and acceptor beads are resuspended in AlphaLISA 5X Epigenetics Buffer 1 Kit (PerkinElmer #AL008) prior to addition to the reaction. All manipulations and incubations with the donor and acceptor beads are done in subdued light. Signal is detected in an EnVision plate reader in Alpha mode (see ACS Med Chem Lett. 2014 Jan. 2; 5(2):205-9. doi: 10.1021/m1400496h. eCollection 2014. Discovery and development of potent and selective inhibitors of histone methyltransferase g9a.)
Percent inhibition was calculated for each compound dilution and the concentration that produced 50% inhibition was calculated. This value is presented as the IC50.

| IC50 | Compound |
| --- | --- |
| 33.1 nM | COc1cc2c(N[C@H]3C[C@@H](O)C3)c3c(nc2cc1OCCCN1CCCC1)CCC3 [Entry 57, (1s,3s)-3-({7-methoxy-6-[3-(pyrrolidin-1-yl)propoxy]-1H,2H,3H-cyclopenta[b]quinolin-9-yl}amino)cyclobutan-1-ol formate] |
| 65.3 nM | COc1cc2c(NC3CC4CCC(C3)O4)c3ccccc3nc2cc1OCCCN1CCCC1 (stereo not drawn) [Entry 80, 2-methoxy-N-{8-oxabicyclo[3.2.1]octan-3-yl}-3-[3-(pyrrolidin-1-yl)propoxy]acridin-9-amine formate] |
| 18.5 nM | COc1cc2c(NC3CC(=O)N(C4CCC4)C3)c3ccccc3nc2cc1OCCCN1CCCC1 (stereo not drawn) [Entry 87, 1-cyclobutyl-4-({2-methoxy-3-[3-(pyrrolidin-1-yl)propoxy]acridin-9-yl}amino)pyrrolidin-2-one trifluoroacetate] |
| 17 nM | COc1cc2c(NC3CCC(C)(O)CC3)c3ccccc3nc2cc1OCCCN1CCCC1 [Entry 99, (1R,4R)-4-({2-methoxy-3-[3-(pyrrolidin-1-yl)propoxy]acridin-9-yl}amino)-1-methylcyclohexan-1-ol trifluoroacetate] |
| 134 nM | COc1cc2c(NCC(=O)O)c3ccccc3nc2cc1OCCCN1CCCC1 [Entry 104, 2-({2-methoxy-3-[3-(pyrrolidin-1-yl)propoxy]acridin-9-yl}amino)acetic acid formate] |
| 20.6 nM | COC(=O)CNc1c2ccccc2nc2cc(OCCCN3CCCC3)c(OC)cc12 [Entry 105, methyl 2-({2-methoxy-3-[3-(pyrrolidin-1-yl)propoxy]acridin-9-yl}amino)acetate formate] |
| 54.3 nM | COc1cc2c(NC3CCOCC3)c3cc(C)ccc3nc2cc1OCCCN1CCCC1 [Entry 114, 2-methoxy-7-methyl-N-(oxan-4-yl)-3-[3-(pyrrolidin-1-yl)propoxy]acridin-9-amine formate] |
| 215 nM | COc1ccc2nc3cc(OCCCN4CCCC4)c(OC)cc3c(NC3CCOCC3)c2c1 [Entry 115, 2,7-dimethoxy-N-(oxan-4-yl)-3-[3-(pyrrolidin-1-yl)propoxy]acridin-9-amine trifluoroacetate] |
| 64.2 nM | COc1cc2c(NC(C)C)c3cnccc3nc2cc1OCCCN1CCCC1 [Entry 121, 8-methoxy-N-(propan-2-yl)-7-[3-(pyrrolidin-1-yl)propoxy]benzo[b]1,6-naphthyridin-10-amine formate] |

The next lines start with the molecule.

| Compound | IC50 |
| --- | --- |
| COc1cc2c(NC3CCC(=O)N(C)C3)c3c(nc2cc1OCCCN1CCCC1)CCC3 (stereo not drawn) [Entry 58, 5-({7-methoxy-6-[3-(pyrrolidin-1-yl)propoxy]-1H,2H,3H-cyclopenta[b]quinolin-9-yl}amino)-1-methylpiperidin-2-one trifluoroacetate] | 46.4 nM |
| COc1cc2c(NC3CNC(=O)C3)c3c(nc2cc1OCCCN1CCCC1)CCC3 (stereo not drawn) [Entry 60, 4-({7-methoxy-6-[3-(pyrrolidin-1-yl)propoxy]-1H,2H,3H-cyclopenta[b]quinolin-9-yl}amino)pyrrolidin-2-one trifluoroacetate] | 14.6 nM |
| COc1cc2c(NC(C3CC3)C3CC3)c3c(nc2cc1OCCCN1CCCC1)CCC3 [Entry 65, N-(dicyclopropylmethyl)-7-methoxy-6-[3-(pyrrolidin-1-yl)propoxy]-1H,2H,3H-cyclopenta[b]quinolin-9-amine formate] | 7.7 nM |
| COc1cc2c(Nc3ccn(C)n3)c3c(nc2cc1OCCCN1CCCC1)CCC3 [Entry 70, N-{7-methoxy-6-[3-(pyrrolidin-1-yl)propoxy]-1H,2H,3H-cyclopenta[b]quinolin-9-yl}-1-methyl-1H-pyrazol-3-amine formate] | 35.8 nM |
| COC(=O)N1CC(CNc2c3c(nc4cc(OCCCN5CCCC5)c(OC)cc24)CCC3)C1 [Entry 71, methyl 3-[({7-methoxy-6-[3-(pyrrolidin-1-yl)propoxy]-1H,2H,3H-cyclopenta[b]quinolin-9-yl}amino)methyl]azetidine-1-carboxylate formate] | 17 nM |
| COCCCNc1c2c(nc3cc(OCCCN4CCCC4)c(OC)cc13)CCC2 [Entry 73, 7-methoxy-N-(3-methoxypropyl)-6-[3-(pyrrolidin-1-yl)propoxy]-1H,2H,3H-cyclopenta[b]quinolin-9-amine formate] | 11.2 nM |
| COc1cc2c(NCCC#N)c3ccccc3nc2cc1OCCCN1CCCC1 [Entry 98, 3-({2-methoxy-3-[3-(pyrrolidin-1-yl)propoxy]acridin-9-yl}amino)propanenitrile trifluoroacetate] | 6.8 nM |
| CNc1c2ccccc2nc2cc(OCCCN3CCC(F)C3)c(OC)cc12 (stereo not drawn) [Entry 117, 3-[3-(3-fluoropyrrolidin-1-yl)propoxy]-2-methoxy-N-methylacridin-9-amine formate] | 139 nM |
| CNc1c2ccccc2nc2cc(OCCCN(C)C)c(OC)cc12 [Entry 119, 3-[3-(dimethylamino)propoxy]-2-methoxy-N-methylacridin-9-amine trifluoroacetate] | 28.5 nM |
| COc1cc2c(NC(C)C)c3cccc(F)c3nc2cc1OCCCN1CCCC1 [Entry 120, 5-fluoro-2-methoxy-N-(propan-2-yl)-3-[3-(pyrrolidin-1-yl)propoxy]acridin-9-amine formate] | 62 nM |
| COc1cc2c(NC(C)C)c3ncccc3nc2cc1OCCCN1CCCC1 [Entry 122, 8-methoxy-N-(propan-2-yl)-7-[3-(pyrrolidin-1-yl)propoxy]benzo[b]1,5-naphthyridin-10-amine formate] | 23.8 nM |
| COc1cc2c(NCC(C)(C)O)c3cccnc3nc2cc1OCCCN1CCCC1 [Entry 123, 1-({7-methoxy-8-[3-(pyrrolidin-1-yl)propoxy]benzo[b]1,8-naphthyridin-5-yl}amino)-2-methylpropan-2-ol formate] | 251 nM |

Reference: US11254651B2, “Histone methyltransferase inhibitors” (GLOBAL BLOOD THERAPEUTICS, INC., priority 2016, dated 2022)
